Read-outs that look alike come from different tables or passages of the source.
Key:
CDK4/cyclin D1 = CDK4/cyclin D1 (Homo sapiens (Human), UniProt P11802); test: CDK4/cyclin D1 enzymatic activity assay (TR-FRET, phosphorylation of pRb at Ser780); type: biochemical; conditions: 0.3 nM CDK4/cyclin D1, 150 nM biotin-pRb (773-924), 3 μM ATP, 60 min at 22° C.; read-out: Biochemical CDK4 enzyme IC50
Method: CDK4/Cyclin D1 Enzymatic Activity Assay
An assay for monitoring CDK4/cyclin D1-catalyzed phosphorylation of pRb at the Ser780 site was performed using TR-FRET in a 384-well format, and was used for IC50 determination and kinetic analysis. […] 3 μM ATP was added last to initiate the reaction. The reaction was quenched with 10 μL of 240 mM EDTA-Na (pH 8.0) after 60 min incubation at 22° C.
Human CDK4/cyclin D1 was expressed in Sf21 cells via baculovirus infection.

[1] = system: phosphorylation of pRb at the Ser780 site in JeKo-1 mantle cell lymphoma cells; test: CDK4 cellular assay: ELISA of pRb phosphorylation at Ser780 in JeKo-1 cells; type: cell-based; conditions: Homo sapiens
From the text: Cell-based assay measuring phosphorylation levels of pRb at the Ser780 site using an enzyme-linked immunosorbent assay (ELISA) method (Table 6). JeKo-1, a mantle-cell lymphoma cell line, was selected for use in this assay due to its known translocation and subsequent overexpression of cyclin D1. [Ref: Amin, H. M.; McDonnell, T. J.; Medeiros, L. J.; Rassidakis, G. Z.; Leventaki, V.; O'Connor, S. L.; Keating, M. J.; Lai, R. Characterization of 4 mantle cell lymphoma cell lines—Establishment of an in vitro study model. Arch. Pathol. Lab.
Cells were allowed to adhere overnight. […] 10 μL of the dilution were then transferred to the cell culture plate, resulting in a final concentration range of 10 μM to 2 nM. The incubation was carried out at 37° C. with 5% CO2. All compounds were tested in triplicates at each concentration. […] The plates were placed at 4° C. with vigorous shaking for 5 min to lyse the cells. The resulting lysates contained approximately 1 μg/μL of protein.
Plates were incubated overnight at 4° C. with rocking. […] After shaking for 10 minutes, the Superblock solution was replaced with fresh Superblock and plates were incubated on a shaker for an additional 50 min. After blocking, 30 μL of JeKo-1 cell lysate, containing approximately 10 μg total protein, were added to wells in triplicate. […] For all incubation steps, plates were covered with Uniseal plate sealers. […] Next, 50 μL of a 1:2500 dilution of donkey-anti-rabbit HRP (Promega catalog no. W401B) in PBS/10% Superblock were added, and plates were incubated for 30 min at room temperature on a shaker. Plates were again washed as described above. […] After incubation, 50 μL 2 M sulfuric acid were added to plates to top the reaction, and absorbance was determined on a SpectraMax (Molecular Devices, Sunnydale, Calif.) within 15 minutes at 450 nm. All washes were performed using a Bio-Tek plate washer.
The Total Rb ELISA kit (Invitrogen catalog no. KH00011) was used to determine the levels of total pRb. This kit uses wells precoated with a proprietary total pRb antibody for capture. All reagents listed, with the exception of cell lysate, were included in the kit. The nature of the antibodies used for capture and detection was labeled as proprietary and not disclosed. 10 μg of cell lysate was loaded into the wells and volume adjusted to 50 μL with standard dilution buffer. Plates were sealed with film included in the kit and incubated for 2 h at room temperature on a shaker. Plates are then manually washed three times with 250 μL wash buffer. 50 μL of proprietary primary antibody (pre-conjugated to biotin) was added to wells and incubated for 1 h at room temperature on a shaker. Then plates were again washed as noted above. The secondary antibody (HRP pre-conjugated to Streptavidin) was diluted 1:100 in Streptavidin-HRP diluent buffer and 50 μL was added to each well. Plates were then incubated for 30 min. Afterwards, plates were washed four times with buffer as outlined above. Finally, 50 μL stabilized Chromogen was added per well and plates were incubated for 15 min, at which point 50 μL of stop solution was added. Plates were then read on a Spectramax at 450 nm.
The total pRb levels were then used to adjust the p-pRb % inhibition values to account for any loss of signal due to the absence of the pRb protein itself, and the IC50 values obtained from the adjusted % inhibitions represent normalized cellular p-pRb IC50.

CDK1/cyclin B = CDK1/cyclin B (Homo sapiens (Human), UniProt P06493); test: CDK1/cyclin B enzymatic activity assay (IMAP-FP); type: biochemical; conditions: 100 nM Tamra Histone-H1 peptide, 20 μM ATP, 120 min at room temperature, read-out: Biochemical CDK1 enzyme IC50
From the text: CDK1/Cyclin B Enzymatic Activity Assay
A 384-well microtiter IMAP-FP™ (Molecular Devices Trade Mark Technology) endpoint assay was used for CDK1/cyclin B kinase activity measurements. The same assay was used for IC50 determination of small molecule inhibitors.

[2] = JeKo-1, JeKo-1 cells, p-pRb % inhibition adjusted with total pRb levels, read-out: Normalized cellular ppRb inhibition IC50
[3] = JeKo-1, JeKo-1 cells, p-pRb Ser780 ELISA, non-normalized, read-out: Cellular ppRb inhibition IC50
[4] = JeKo-1, read-out: Cellular ppRb inhibition IC50
[5] = JeKo-1, read-out: Normalized cellular ppRb inhibition IC50

Sequence of CDK1/cyclin B (P06493 whole entry, species assumed): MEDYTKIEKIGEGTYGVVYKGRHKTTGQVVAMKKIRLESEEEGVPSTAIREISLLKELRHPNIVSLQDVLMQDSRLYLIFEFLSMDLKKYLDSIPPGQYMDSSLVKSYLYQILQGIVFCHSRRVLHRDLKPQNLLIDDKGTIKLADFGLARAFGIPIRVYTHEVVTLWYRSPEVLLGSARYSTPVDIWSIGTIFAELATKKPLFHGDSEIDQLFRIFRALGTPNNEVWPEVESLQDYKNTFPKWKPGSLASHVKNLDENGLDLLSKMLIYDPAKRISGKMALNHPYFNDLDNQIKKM
Sequence of CDK1/cyclin B (P14635 whole entry partner, species assumed): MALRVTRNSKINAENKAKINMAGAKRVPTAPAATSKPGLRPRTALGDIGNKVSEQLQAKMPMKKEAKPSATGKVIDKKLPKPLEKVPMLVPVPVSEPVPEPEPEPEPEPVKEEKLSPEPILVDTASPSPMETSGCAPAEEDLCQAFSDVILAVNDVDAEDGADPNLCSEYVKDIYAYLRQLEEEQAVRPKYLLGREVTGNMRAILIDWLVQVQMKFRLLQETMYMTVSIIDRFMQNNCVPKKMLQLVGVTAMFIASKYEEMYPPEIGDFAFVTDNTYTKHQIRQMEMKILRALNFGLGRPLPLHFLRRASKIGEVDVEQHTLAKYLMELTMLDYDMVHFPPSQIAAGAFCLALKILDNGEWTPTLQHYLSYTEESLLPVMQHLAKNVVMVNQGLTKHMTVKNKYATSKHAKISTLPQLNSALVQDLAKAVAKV
Sequence of CDK4/cyclin D1 (P11802 whole entry): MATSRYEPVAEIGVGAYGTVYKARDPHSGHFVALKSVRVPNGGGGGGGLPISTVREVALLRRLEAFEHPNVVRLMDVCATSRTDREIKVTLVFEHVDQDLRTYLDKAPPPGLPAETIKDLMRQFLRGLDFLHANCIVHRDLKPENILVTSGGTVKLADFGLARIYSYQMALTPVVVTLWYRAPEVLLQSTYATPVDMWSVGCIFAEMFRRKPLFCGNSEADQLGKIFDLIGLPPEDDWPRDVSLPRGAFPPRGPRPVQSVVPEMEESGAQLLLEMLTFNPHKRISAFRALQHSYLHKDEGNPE
Sequence of CDK4/cyclin D1 (P24385 whole entry partner): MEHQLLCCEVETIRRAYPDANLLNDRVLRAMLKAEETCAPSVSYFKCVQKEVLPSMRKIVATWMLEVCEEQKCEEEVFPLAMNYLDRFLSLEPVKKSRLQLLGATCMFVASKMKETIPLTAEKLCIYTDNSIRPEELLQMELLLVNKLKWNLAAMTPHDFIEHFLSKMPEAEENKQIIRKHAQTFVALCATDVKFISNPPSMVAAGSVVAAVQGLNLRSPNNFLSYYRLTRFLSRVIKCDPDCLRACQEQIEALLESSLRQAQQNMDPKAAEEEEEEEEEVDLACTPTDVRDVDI

SMILES | IC50 (CDK4/cyclin D1) | IC50 [1, 2] | IC50 [1, 3] | IC50 (CDK1/cyclin B; […] CDK1/cyclin B) | IC50 [1, 4] | IC50 [1, 5] | IC50 (CDK1/cyclin B; 0.25 nM CDK1/cyclin B) | IC50 ([1]; JeKo-1 cells, p-pRb % inhibition adjusted with total pRb levels, read-out: Normalized cellular ppRb inhibition IC50) | IC50 ([1]; JeKo-1 cells, p-pRb Ser780 ELISA, non-normalized, read-out: Cellular ppRb inhibition IC50)
CN(C)C(=O)c1cc2cnc(Nc3ccc(C(=O)N4CC5CCC(C4)N5)cn3)nc2n1[C@@H]1C[C@H]2CC[C@@H]1C2 (stereo in doubt) [Example 36, 7-(1R,2R,4S)-Bicyclo[2.2.1]hept-2-yl-2-[5-(3,8-diaza-bicyclo[3.2.1]octane-3-carbonyl)-pyridin-2-ylamino]-7H-pyrrolo[2,3-d]pyrimidine-6-carboxylic acid dimethylamide] | 3 nM | 28 nM | 23 nM | 13000 nM | – | – | – | – | –
CN(C)C(=O)c1cc2cnc(Nc3ccc(N4C[C@H]5CNC[C@H]5CC4=O)cn3)nc2n1C1CCCCCC1 (stereo in doubt) [Example 88, 7-cycloheptyl-N,N-dimethyl-2-(5-(cis-6-oxotetrahydro-1H-pyrrolo[3,4-c]pyridin-5(6H, 7H, 7a H)-yl)pyridin-2-ylamino)-7H-pyrrolo[2,3-d]pyrimidine-6-carboxamide] | 5 nM | 11 nM | 7 nM | 2510 nM | – | – | – | – | –
CN(C)C(=O)c1cc2cnc(Nc3ccc(N4C[C@@H]5CNC[C@@H]5CC4=O)cn3)nc2n1C1CCCCCC1 (stereo in doubt) [Example 89, 7-cycloheptyl-N,N-dimethyl-2-(5-(cis-6-oxotetrahydro-1H-pyrrolo[3,4-c]pyridin-5(6H,7H,7aH)-yl)pyridin-2-ylamino)-7H-pyrrolo[2,3-d]pyrimidine-6-carboxamide] | 3 nM | 4 to 15 nM | 5 to 7 nM | 6480 nM | – | – | – | – | –
CN(C)C(=O)c1cc2cnc(Nc3ccc(N4C[C@H]5CNC[C@H]5CC4=O)cn3)nc2n1C1CCCC1 (stereo in doubt) [Example 91, 7-cyclopentyl-N,N-dimethyl-2-(5-(cis-6-oxotetrahydro-1H-pyrrolo[3,4-c]pyridin-5(6H,7H,7aH)-yl)pyridin-2-ylamino)-7H-pyrrolo[2,3-d]pyrimidine-6-carboxamide] | 5 to 7 nM | – | – | – | 10 to 27 nM | 22 to 74 nM | 13300 to 14900 nM | – | –
CN(C)C(=O)c1cc2cnc(Nc3ccc(N4C[C@@H]5CNC[C@@H]5CC4=O)cn3)nc2n1C1CCCC1 (stereo in doubt) [Example 92, 7-cyclopentyl-N,N-dimethyl-2-(5-(cis-6-oxotetrahydro-1H-pyrrolo[3,4-c]pyridin-5(6H,7H,7aH)-yl)pyridin-2-ylamino)-7H-pyrrolo[2,3-d]pyrimidine-6-carboxamide] | 5 to 7 nM | – | – | 25100 nM | 5 to 20 nM | 19 to 38 nM | – | – | –
CN1C[C@@H]2CN(c3ccc(Nc4ncc5cc(C(=O)N(C)C)n(C6CCCC6)c5n4)nc3)C(=O)[C@@H]2C1 (stereo in doubt) [Example 95, 7-cyclopentyl-N,N-dimethyl-2-(5-((3aR,6aS)-5-methyl-1-oxohexahydropyrrolo[3,4-c]pyrrol-2(1H)-yl)pyridin-2-ylamino)-7H-pyrrolo[2,3-d]pyrimidine-6-carboxamide] | 7 nM | 21 to 65 nM | 4 to 20 nM | – | – | – | 14000 to 14300 nM | – | –
CN(C)C(=O)c1cc2cnc(Nc3ccc(C(=O)N4C[C@H]5CNC[C@@H](C4)C5O)cn3)nc2n1C1CCCC1 (stereo partly drawn) [Example 1, 7-Cyclopentyl-2-(5-((1R,5S)-9-hydroxy-3,7-diazabicyclo[3.3.1]nonane-3-carbonyl)pyridin-2-ylamino)-N,N-dimethyl-7H-pyrrolo[2,3-d]pyrimidine-6-carboxamide] | 17 nM | – | – | > 15000 nM | – | – | – | 538 nM | 364 nM
CN(C)C(=O)c1cc2cnc(Nc3ccc(C(=O)N4C[C@H]5CNC[C@@H](C4)C5O)cn3)nc2n1C1CCCCCC1 (stereo partly drawn) [Example 2, 7-cycloheptyl-2-(5-((1R,5S)-9-hydroxy-3,7-diazabicyclo[3.3.1]nonane-3-carbonyl)pyridin-2-ylamino)-N,N-dimethyl-7H-pyrrolo[2,3-d]pyrimidine-6-carboxamide] | 5 nM | 84 nM | 66 nM | > 15000 nM | – | – | – | – | –

Source: patent US8957074B2 (Novartis AG, priority 2010, dated 2015)
